For 74 compounds, remaining activity results are on record in paper PMC9718554, “Discovery of a fragment hit compound targeting D-Ala:D-Ala ligase of bacterial peptidoglycan biosynthesis” (Journal of Enzyme Inhibition and Medicinal Chemistry, 2022).

Where two headings read alike, the source gives them in different places.

The target in the assay is T1, E. coli DdlB enzyme (D-alanine:D-alanine ligase) (Escherichia coli, UniProt P07862).
T1 construct: made in house; host or cells: E. coli
The experiment in a line: biochemical. The conditions noted are these: read-out: DdlB RA; for remaining activity at 2900 µM: tested concentration 2.9 mM; for remaining activity at 2000 µM: tested concentration 2.0 mM; for remaining activity at 2500 µM: tested concentration 2.5 mM; for remaining activity at 2300 µM: tested concentration 2.3 mM; for remaining activity at 1700 µM: tested concentration 1.7 mM; for remaining activity at 2200 µM: tested concentration 2.2 mM; for remaining activity at 1800 µM: tested concentration 1.8 mM; for remaining activity at 5000 µM: tested concentration 5.0 mM; for remaining activity at 1900 µM: tested concentration 1.9 mM; for remaining activity at 2100 µM: tested concentration 2.1 mM; for remaining activity at 2800 µM: tested concentration 2.8 mM; for remaining activity at 2400 µM: tested concentration 2.4 mM.

`O=C(O)c1cc(O)no1` [Compound 8020-2787]: the remaining activity at 3900 µM (tested concentration 3.9 mM) amounted to 92%.

Turning to `N#CC1CC(c2cccc(Cl)c2)=NO1` (centres unmarked) [Compound 8020-2797], the remaining activity at 2900 µM came to 107%.

With `COc1cccc(-c2ncc(C(=O)O)c(=O)[nH]2)c1` [Compound 8020-2801], the remaining activity at 2000 µM (residual activity) was determined as 92%.

For the compound `CCc1ccc(S(N)(=O)=O)cc1N` [Compound 8020-2865], the remaining activity at 2500 µM came out at 97%.

`O=C(O)c1ncoc1-c1ccc2c(c1)OCCO2` [Compound 8020-3638]: the remaining activity at 2000 µM (residual activity) was 62%.

Consider `O=C(O)c1cnc(-c2cccnc2)[nH]c1=O` [Compound 8020-5063], for which, where the note is “residual activity”, the remaining activity at 2300 µM was 94%.

As to `O=C1CC(c2cccc(O)c2)c2snc(C(=O)O)c2N1` (centres unmarked) [Compound 8020-5288], the remaining activity at 1700 µM (residual activity) is 114%.

Regarding `O=C(O)c1cnc(-c2ccc(F)cc2)nc1` [Compound 8020-5433], the remaining activity at 2300 µM is 81%.

Regarding `Brc1ccc(-c2nc[nH]n2)cc1` [Compound 8020-5438], the remaining activity at 2200 µM (residual activity) is 88%.

As to `O=C(O)Cc1nc(-c2cncc(Br)c2)n[nH]1` [Compound 8020-5455], the remaining activity at 1800 µM (residual activity) stood at 94%.

For `OC1CCCc2[nH]nc(-c3ccccc3)c21` (centres unmarked) [Compound 8020-5457], the remaining activity at 2300 µM was found to be 96%.

Regarding `O=C1C=C(O)CO1` [Compound 8020-5738], the remaining activity at 5000 µM was 98%.

On to `Nc1n[nH]c(-c2ccccc2C(=O)O)n1` [Compound 8020-6003], for which the remaining activity at 2500 µM was 98%.

`O=S(=O)(O)c1nnc(-c2ccncc2)[nH]1` [Compound 8020-6014]: the remaining activity at 2200 µM was found to be 80%.

On to `Cn1c(-c2ccco2)nnc1S(=O)(=O)O` [Compound 8020-6142], for which the remaining activity at 2200 µM is 90%.

In the case of `N#Cc1c2c([nH]c(=O)c1C(=O)O)CCCCCC2` [Compound 8020-6316], the remaining activity at 2000 µM amounted to 91%.

As for `CCc1c(C)[nH]c(=O)c(C(=O)O)c1C(N)=O` [Compound 8020-6319], the remaining activity at 2200 µM (residual activity) is 72%.

Take `Cn1nccc1-c1cccc(B(O)O)c1` [Compound 8020-6599]: the remaining activity at 2500 µM stood at 93%.

In the case of `COc1cc(C#N)cc2[nH]c(=O)oc12` [Compound 8020-7090], the remaining activity at 2600 µM (tested concentration 2.6 mM) was found to be 97%.

On to `O=c1[nH]c2ccc(O)cc2o1` [Compound 8020-7157], for which the remaining activity at 3300 µM (tested concentration 3.3 mM) was 96%.

On to `O=S(=O)(O)c1ccc2[nH]nnc2c1` [Compound 8020-8129], for which the remaining activity at 2500 µM was found to be 93%.

Turning to `Nc1cc(=O)[nH]o1` [Compound 8020-8247], the remaining activity at 5000 µM came out at 97%.

As to `Cc1ccc(C(C)C)cc1S(=O)(=O)O` [Compound 8020-8310], the remaining activity at 2300 µM worked out at 91%.

As to `O=C(O)Cn1nnc(-c2cccc(-n3cccn3)c2)n1` [Compound 8020-8838], for the setting “fragment library screening”, the remaining activity at 1900 µM turned out to be 92%.

Regarding `CCC[C@@H]1Cc2nc(O)c(C(=O)O)cc2CO1` [Compound 8330-0016], the remaining activity at 2100 µM was 75%.

Turning to `O=C(O)c1ccccc1NCCc1ccc(Cl)cc1` [Compound 8524-6914], the remaining activity at 1800 µM (residual activity) is 105%.

For the compound `CCN1CCOC(=O)C1CC(=O)Nc1ccc(F)cc1` (centres unmarked) [Compound 8563-1154], the remaining activity at 2000 µM (residual activity) was found to be 88%.

`Oc1nc(-c2ccc(F)cc2)no1` [Compound C066-5406]: the remaining activity at 2800 µM came to 97%.

Take `Cc1ccc(-c2noc(O)n2)cc1` [Compound C066-5428]: the remaining activity at 2800 µM was determined as 95%.

As for `O=C(O)C1CCCCN1S(=O)(=O)c1ccc(F)cc1` (centres unmarked) [Compound C155-0476], the remaining activity at 2100 µM (residual activity) was found to be 90%.

Regarding `COc1ncccc1S(=O)(=O)N1CCCCC1` [Compound C200-8263], the remaining activity at 2300 µM is 100%.

For the compound `O=C(O)c1cccn2c(=O)c3cc(F)ccc3nc12` [Compound C200-9599], where the note is “residual activity”, the remaining activity at 1900 µM was determined as 85%.

For the compound `Cc1ccc2nc3c(C(=O)O)cccn3c(=O)c2c1` [Compound C200-9601], where the note is “residual activity”, the remaining activity at 2000 µM is 75%.

On to `O=C(O)c1cccn2c(=O)c3cc(Cl)ccc3nc12` [Compound C200-9602], for which, under “residual activity”, the remaining activity at 1800 µM came to 78%.

As for `CCOC(=O)c1cn[nH]c1O` [Compound C201-1623], the remaining activity at 3200 µM worked out at 101%.

On to `Cc1nc(N(C)C)ncc1C(=O)O` [Compound C430-1216], for which the remaining activity at 2800 µM was determined as 88%.

Turning to `COCC(C)NC(=O)c1cc(C)no1` (centres unmarked) [Compound C625-0074], the remaining activity at 2800 µM was determined as 96%.

Consider `CCCNc1c(N2CCCC(C(=O)OCC)C2)c(=O)c1=O` (centres unmarked) [Compound C738-0118], for which the remaining activity at 1700 µM turned out to be 108%.

Take `N#Cc1ccccc1OCC(=O)O` [Compound C790-0277]: the remaining activity at 2800 µM is 96%.

`CC(=O)N1C(C(=O)O)CSC1c1ccc(C)cc1` (centres unmarked) [Compound C796-0200]: the remaining activity at 1900 µM was found to be 90%.

For the compound `O=C(Cn1cc2c(n1)CCCC2)Nc1ccc(F)cc1` [Compound C881-0402], the remaining activity at 2000 µM (residual activity) turned out to be 79%.

As to `O=C(O)COCC(=O)Nc1ccc(-c2nn[nH]n2)cc1` [Compound D047-0107], the remaining activity at 1800 µM (fragment library screening) was 93%.

As for `CCCCCC(C)n1nc(O)cc1N` (centres unmarked) [Compound D068-0217], the remaining activity at 2500 µM was 103%.

Turning to `CCCC(CCC)n1nc(O)cc1N` [Compound D068-0218], the remaining activity at 2500 µM was 100%.

In the case of `CCCCC(CC)n1nc(O)cc1N` (centres unmarked) [Compound D068-0219], the remaining activity at 2500 µM is 100%.

As to `CC1CN(C)C(C)CC1n1nc(O)cc1N` (centres unmarked) [Compound D068-0221], the remaining activity at 2200 µM is 101%.

Turning to `COCCn1c(CCC(=O)O)ccc1-c1ccccc1` [Compound D135-0001], the remaining activity at 1800 µM came out at 90%.

For the compound `O=C(O)CC1C(=O)NCCN1C1Cc2ccccc2C1` (centres unmarked) [Compound D236-0050], under “residual activity”, the remaining activity at 2000 µM was found to be 103%.

Take `C=CCn1c(N2CCC(C(=O)O)CC2)nc2ccccc21` [Compound D264-0028]: for the setting “fragment library screening”, the remaining activity at 1800 µM was found to be 86%.

As to `COc1ccc2ncc(C(=O)O)c(O)c2c1` [Compound D284-0199], the remaining activity at 2300 µM worked out at 66%.

Take `CC1CCCN(C(=O)c2nc[nH]c2C(=O)NC(C)C)C1` (centres unmarked) [Compound D340-0776]: where the note is “residual activity”, the remaining activity at 2000 µM was determined as 96%.

As to `CCS(=O)(=O)N1CCCc2cc(C(=O)NC)ccc21` [Compound D348-0142], under “residual activity”, the remaining activity at 2100 µM is 92%.

`CNC(=O)C1CCCN(S(=O)(=O)c2cccs2)C1` (centres unmarked) [Compound D356-2306]: for the setting “residual activity”, the remaining activity at 1900 µM came out at 86%.

With `CCS(=O)(=O)N1CCCC1c1ccc(C)cc1` (centres unmarked) [Compound D399-0123], the remaining activity at 2400 µM was 89%.

As for `CCS(=O)(=O)N1CCCC1c1ccccc1F` (centres unmarked) [Compound D399-0515], the remaining activity at 2300 µM came to 95%.

For the compound `O=c1[nH]c(O)ncc1S(=O)(=O)NC1CCCCC1` [Compound D668-0013], under “residual activity”, the remaining activity at 1800 µM worked out at 99%.

For the compound `Cc1ccc(NS(=O)(=O)c2cnc(O)[nH]c2=O)c(C)c1` [Compound D668-0040], the remaining activity at 1700 µM worked out at 91%.

With `O=c1[nH]c(O)ncc1S(=O)(=O)N1CCCC1` [Compound D668-0107], the remaining activity at 2000 µM (residual activity) came out at 94%.

As to `Cc1nc(O)[nH]c(=O)c1S(=O)(=O)NC(C)(C)C` [Compound D668-0207], the remaining activity at 1900 µM (residual activity) was 85%.

`Cc1nc(O)[nH]c(=O)c1S(=O)(=O)N1CCCCC1` [Compound D668-0306]: under “residual activity”, the remaining activity at 1800 µM is 89%.

As to `O=C(O)Cn1ccc(=O)[nH]c1=O` [Compound D702-0091], the remaining activity at 2900 µM is 89%.

As for `CC(=O)c1cnc2c(C(=O)O)cnn2c1C` [Compound D717-0038], the remaining activity at 2300 µM was 104%.

With `O=C(O)c1cc2nccc(-c3ccccc3)n2n1` [Compound D717-0041], the remaining activity at 2100 µM (residual activity) came to 74%.

`Cc1cc(-c2ccc(Cl)cc2)nc2cc(C(=O)O)nn12` [Compound D717-0161]: the remaining activity at 1700 µM (fragment library screening) was found to be 88%.

`O=C(O)c1cc(-c2ccccc2Cl)on1` [Compound D717-0173]: the remaining activity at 2200 µM (residual activity) is 107%.

Take `O=c1c(NCc2ccccn2)c(-c2ccccc2)c1=O` [Compound E470-0290]: the remaining activity at 1900 µM is 96%.

For `CN(Cc1ccccc1)c1c(-c2ccccc2)c(=O)c1=O` [Compound E470-0301], the remaining activity at 1800 µM was determined as 103%.

For `CCN(CC)CCNc1c(-c2ccccc2)c(=O)c1=O` [Compound E470-0370], the remaining activity at 1800 µM came out at 94%.

Consider `O=c1c(-c2ccccc2)c(N2CCOCC2)c1=O` [Compound E470-0468], for which the remaining activity at 2100 µM turned out to be 91%.

As to `COc1ccc(-c2c(Nc3cccc(C)c3)c(=O)c2=O)cc1` [Compound E470-1008], the remaining activity at 1700 µM worked out at 100%.

In the case of `O=c1c(-c2ccc(Cl)cc2)c(N2CCOCC2)c1=O` [Compound E786-0171], the remaining activity at 1800 µM was found to be 141%.

In the case of `O=C(O)Cn1nc(C(F)(F)F)c2c1CCCC2` [Compound F235-1104], the remaining activity at 2400 µM stood at 95%.

With `CCN1CCN(c2ccc(NC(C)=O)c(C(=O)O)c2)CC1` [Compound F687-0683], the remaining activity at 1700 µM (residual activity) was 94%.

For `Cc1cc2nc(COC(=O)c3ccco3)cc(=O)n2o1` [Compound G265-0750], the remaining activity at 1800 µM came to 92%.
